US20160083643A1, “ENHANCED OIL RECOVERY METHOD EMPLOYING A BIODEGRADABLE BRINE TOLERANT FOAM-FORMING COMPOSITION” (DOW GLOBAL TECHNOLOGIES LLC, priority 2013, published 2016)

Experiments:
Desmondesmus subspicatus = experiment: Fresh water algal growth inhibition test (OECD 201); format: cell-based; conditions: isolated, purified component from Example 3; read-out: Fresh Water algal growth inhibition test with Desmondesmus subspicatus ErC50/0-3
Excerpt: Aquatic Toxicity procedures and test methods are based on the recommendations of the following guidelines: Organization for Economic Cooperation and Development (OECD): OECD Guidelines for the Testing of Chemicals, “Freshwater Alga and Cyanobacteria, Growth Inhibition Test”, Procedure 201, adopted 23 Mar. 2006; European Economic Community (EEC): Commission directive 92/69/EEC of 31 Jul. 1992, Methods for the determination of ecotoxicity, C.3., “Algal Inhibition Test”. Preferably the surfactants of the present invention have a toxicity profile (EC50)>1 and </=10 mg/l; more preferably an EC50>10 and </=100 mg/l; and most preferably an EC50>100 mg/l.
The study procedures and test methods for aquatic toxicity are based on the recommendations of the following guidelines: Organization for Economic Cooperation and Development (OECD): OECD Guidelines for the Testing of Chemicals, “Freshwater Alga and Cyanobacteria, Growth Inhibition Test”, Procedure 201, adopted 23 Mar. 2006; European Economic Community (EEC): Commission directive 92/69/EEC of 31 Jul. 1992, Methods for the determination of ecotoxicity, C.3., “Algal Inhibition Test”.
Data from the aquatic toxicity tests of the isolated and purified C12 monosulfonate (sodium 2-(dodecanyloxy)-3-hydroxypropane-1-sulfonate) and C12 disulfonate (sodium 2-(dodecanyloxy)propane-1,3-disulfonate) from Example 3 is shown in Table 2. […]

Daphna magna = experiment: 48-hour acute toxicity to Daphna magna; format: in vivo; conditions: isolated, purified component from Example 3

**Q.** How did the EC50 (Desmondesmus subspicatus) turn out when `CCCCCCCCCCCCOC(CS(=O)(=O)[O-])CS(=O)(=O)[O-].[Na+].[Na+]` [C12 disulfonate component, sodium 2-(dodecanyloxy)propane-1,3-disulfonate] was run?
**A.** > 100 µg/mL

**Q.** And the EC50 (Daphna magna)?
**A.** > 100 µg/mL

**Q.** For `CCCCCCCCCCCCOC(CO)CS(=O)(=O)[O-].[Na+]` (stereo not shown) [C12 monosulfate component, sodium 2-(dodecanyloxy)-3-hydroxypropane-1-sulfonate], which EC50 (Desmondesmus subspicatus) is on record?
**A.** > 100 µg/mL

**Q.** What about the EC50 (Daphna magna) of the same compound?
**A.** > 100 µg/mL
